Measured values as given in patent US20110280865A1, “Ets-2 Biomarkers for Fibrotic Diseases and Uses Thereof” (THE OHIO STATE UNIVERSITY, priority 2009, published 2011).

Test system: ets-2 (WT/WT) and ets-2 (A72/A72) mice
Experiment: Bronchoalveolar lavage (BAL) cell differentials after intra-peritoneal bleomycin
Type: in vivo, mouse
Settings: mean ± S.E.M.
Procedure: Mice: Transgenic mice harboring a point mutation in Ets2 [Ets2tmA720sh, referred to as Ets2 (A72/A72)] resulting in a threonine to alanine conversion at position 72 were used. Wild type littermates (FVB/N background) were used as controls.
Bleomycin studies: Male mice, aged 6-12 weeks, underwent intra-peritoneal (IP) injection. Briefly, mice were injected with 0.035 U bleomycin/g or PBS (vehicle control) on days 1, 4, 8, 11, 15, 18, 22, and 25. One week following the last injection, mice were sacrificed. Prior to removal, lungs were lavaged with 1.0 ml of PBS. Lungs were subsequently removed and inflated at 20 cm pressure. The left lobe of the lung was placed in 10% Formalin and prepared for immunohistochemical processing (Histotechniques, Powell, Ohio), and the right lobes were snap frozen in liquid nitrogen for RNA, collagen, and protein analyses.
Bronchoalveolar lavage (BAL) analysis: Following the bleomycin regimen (33 days), two instillations of 0.5 ml of PBS were performed, and the BAL fluid (BALF) was collected. The total number of cells isolated via BAL was calculated. BAL fluid was then centrifuged to pellet the cells, and the supernatant (BALF) was collected and stored for ELISA analyses. Cells were resuspended in 100 μl of PBS, cytospun on slides, stained, and analyzed under a microscope for cell differentials.

[1] = ets-2 (A72/A72) mice, n = 7, 0.035 U bleomycin/g IP
[2] = ets-2 (WT/WT) mice, n = 5, 0.035 U bleomycin/g IP

bleomycin
Alveolar Macrophages [1]: 6.8 ± 1.4 ×10^4 | Lymphocytes [1]: 0.7 ± 0.6 ×10^4 | Neutrophils [1]: 0.8 ± 0.6 ×10^4 | Total cells [1]: 8.3 ± 2.0 ×10^4 | Alveolar Macrophages [2]: 12.0 ± 2.3 $ ×10^4 | Lymphocytes [2]: 0 ×10^4 | Neutrophils [2]: 0 ×10^4 | Total cells [2]: 12.0 ± 2.3 # ×10^4
